“And” between values parts separate entries of the source, which are not always exact repeats. Equal entries are not always repeated.
Assays:
[1] = Solubility of synthesized tartrate salt and free base of compound 4; type: physicochemical; details: free base; read-out: solubility
Method: The free base of compound 4 has a solubility of 0.8 mg/ml

[2] = Solubility of salts of compound 4: compound added in portions to acid in water until no clear solution; type: physicochemical; details: for Dissolved g of 4 / pH: clear solution
Method: A defined amount of an acid (1.0 g) was weighed into a flask and dissolved in water (10 ml). […] The pH value was measured after each addition.
Thus 8 g of compound 4 in 10 ml of water can be dissolved.

[3] = Stability tests of solutions of compound 4 with equimolar acids in water; type: physicochemical; details: for solubility: water with equimolar acid, thermodynamic from solid
Method: Equimolar amounts of compound 4 and acids were diluted with water: Water was added until all residues were dissolved. 200, 100 and 50 mg of compound 4 was used, each amount was combined with each acid of the following list. The solutions were equilibrated at room temperature and then held for 7 days at room temperature and thereafter 7 days at 8° C.

[4] = PK studies of formulations, plasma by HPLC-MS/MS; type: in vivo; details: SC, Cattle
Method: The following formulations were prepared and administered to animals. Blood samples were collected at pre-defined time points and the amount of compound present in plasma at the time of sampling was determined by HPLC-MS/MS. Pharmacokinetic parameters were then calculated: Cmax, Tmax, Tlast, AUC. [table]

[5] = 0.5 g Acetic acid in 10 ml water
[6] = 1.0 g Citric acid in 10 ml water
[7] = 1.0 g Tartaric acid in 10 ml water
[8] = Form O62.5 (FormO type: L-tartaric acid, NaOH to pH 4.4, water), 1.25 mg/kg

In the case of `CCOc1cc(NCCNC(=O)/C=C/C(F)(F)F)ccn1` [Compound 4, (E)-N-[2-[(2-ethoxy-4-pyridyl)amino]ethyl]-4,4,4-trifluoro-but-2-enamide], the solubility [1] is reported as 0.8 mg/mL, the “Dissolved g of 4” value [2, 5] is reported as 1 g and the pH [2, 5] is reported as 4.6. For the same compound, the “Dissolved g of 4” value [2, 6] was 2.5 g, the pH [2, 6] was 4.4 and the “Dissolved g of 4” value ([2]; 1.0 g Maleic acid in 10 ml water) was <0.1 g. For the same compound, the “Dissolved g of 4” value [2, 7] was 3.5 g, the pH [2, 7] was 4.2 and the appearance of solution ([2]; 2 g compound 4 and 1 g tartaric acid in 2.5 ml water) was “clear solution”. The “amount that can be dissolved in 10 ml of water” value ([2]; with tartaric acid, scaled from 2 g in 2.5 ml) was 8 g, the pH ([3]; equimolar Citric acid in water) was 3.41 and the pH ([3]; equimolar D-glucoronic acid in water) was 4.15. The pH ([3]; equimolar Ethanesulfonic acid in water) was 1.23, the pH ([3]; equimolar Fumaric acid in water) was 3.74 and the pH ([3]; equimolar Hydrochloric acid in water) was 1.15. For the same compound, the pH ([3]; equimolar L-lactic acid in water) was 4.28, the pH ([3]; equimolar Methanesulfonic acid in water) was 1.28 and the pH ([3]; equimolar Oxalic acid in water) was 2.14. For the same compound, the pH ([3]; equimolar Sulfuric acid in water) was 0.06, the pH ([3]; equimolar Tartaric acid in water) was 3.35 and the solubility ([3]; pH 0.06, water, equimolar Sulfuric acid in water) was > 200 mg/mL. The solubility ([3]; pH 1.15, water, equimolar Hydrochloric acid in water) was > 200 mg/mL, the solubility ([3]; pH 1.23, water, equimolar Ethanesulfonic acid in water) was > 200 mg/mL and the solubility ([3]; pH 1.28, water, equimolar Methanesulfonic acid in water) was > 200 mg/mL. The solubility ([3]; pH 2.14, water, equimolar Oxalic acid in water) was > 200 mg/mL, the solubility ([3]; water, equimolar Citric acid in water) was > 200 mg/mL and the solubility ([3]; water, equimolar D-glucoronic acid in water) was > 100 mg/mL. For the same compound, the solubility ([3]; water, equimolar Fumaric acid in water) was > 200 mg/mL, the solubility ([3]; water, equimolar L-lactic acid in water) was > 100 mg/mL and the solubility ([3]; water, equimolar Phosphoric acid in water) was > 100 mg/mL. For the same compound, the solubility ([3]; water, equimolar Tartaric acid in water) was > 200 mg/mL, the solubility ([3]; water, equimolar acetic acid in water) was < 50 mg/mL and the solubility ([3]; water, equimolar benzenesulfonic acid in water) was < 50 mg/mL. For the same compound, the solubility ([3]; water, equimolar benzoic acid in water) was < 50 mg/mL, the solubility ([3]; water, equimolar ethanedisulfonic acid in water) was < 50 mg/mL and the solubility ([3]; water, equimolar isethionic acid in water) was > 200 mg/mL. The solubility ([3]; water, equimolar maleic acid in water) was < 50 mg/mL, the solubility ([3]; water, equimolar malonic acid in water) was < 50 mg/mL and the solubility ([3]; water, equimolar p-toluenesulfonic acid in water) was < 50 mg/mL. The solubility ([3]; water, equimolar saccharin in water) was < 50 mg/mL, the solubility ([3]; water, equimolar succinic acid in water) was < 50 mg/mL and the Tlast ([4]; Form A50 (NMP, propylene glycol, water), 1.25 mg/kg) was 6.5 h. It also gave a Tlast ([4]; Form B62.5 (dimethyl acetamide, propylene glycol, water), 1.25 mg/kg) of 5.33 h, an AUC [4, 8] of 372 ng·h/mL and a Cmax [4, 8] of 428 ng/mL. The Tlast [4, 8] was 4 h and 3 h, the Tmax [4, 8] was 18.6 min and the Tlast ([4]; FormC62.5 (propylene glycol, ethanol, Transcutol P), 1.25 mg/kg) was 10.7 h. It also gave a Tlast ([4]; FormD62.5 (PEG 300, ethanol, Transcutol P), 1.25 mg/kg) of 4 h, a Tlast ([4]; FormE62.5 (polyethylene glycol 300, ethyl alcohol 96%, water), 1.25 mg/kg) of 5 h and a Tlast ([4]; FormF62.5 (polyethylene glycol, 1-octanol, 2-pyrrolidone), 1.25 mg/kg) of 8 h. For the same compound, the Tlast ([4]; FormG62.5 (benzyl alcohol, ethyl alcohol 96%, polyethylene glycol 300), 1.25 mg/kg) was 5.33 h, the Tlast ([4]; FormH62.5 (DMA, DMSO, 2-pyrrolidone), 1.25 mg/kg) was 4 h and the Tlast ([4]; FormJ62.5 (DMSO, 2-pyrrolidone, ethyl lactate), 1.25 mg/kg) was 4 h. For the same compound, the Tlast ([4]; FormK62.5 (2-pyrrolidone, Transcutol P, ethyl lactate), 1.25 mg/kg) was 4 h, the Tlast ([4]; FormL50 (DMA, propylene glycol, water), 1.25 mg/kg) was 4 h and the Tlast ([4]; FormM62.5 (L-tartaric acid, sodium hydroxide up to pH 4.6, water), 1.25 mg/kg) was 3.33 h. For the same compound, the Tlast ([4]; FormO60 (FormO type: L-tartaric acid, NaOH to pH 4.4, water), 1 mg/kg) was 2.67 h, the Tlast ([4]; FormP62.5 (L-tartaric acid, 2-pyrrolidone, NaOH, water), 1.25 mg/kg) was 6.67 h and the Tlast ([4]; FormQ62.5 (L-tartaric acid, sodium carboxymethyl cellulose, NaOH up to pH 4.3, water), 1.25 mg/kg) was 4 h.

From patent US20210107874A1, “PHARMACEUTICAL FORMULATION OF CROTONYLAMINOPYRIDINE SALT” (priority 2017, published 2021)
